# According to US9006208B2, “Agent for treatment of dry eye characterized by combining P2Y2 receptor agonist and hyaluronic acid or salt thereof, method for treating dry eye, and use of the P2Y2 receptor agonist and hyaluronic acid or salt thereof” (Santen Pharmaceutical Co., Ltd., priority 2010, dated 2015):
# Tests used:
# rabbits = details: Current Eye Research 21(4), 782-787 (2000); cited from earlier work
# [1] = system: normal male white rabbits; experiment: Pharmacological Test 3: change in tear meniscus area (3% diquafosol sodium, 0.002% sodium hyaluronate); type: in vivo, rabbit; details: 35 minutes after administration, 50 μL, combination: hyaluronate 5 min after diquafosol
# Description: For the purpose of examining as to whether or not an increase in tear meniscus area values is observed when a P2Y2 receptor agonist at a therapeutically effective concentration is combined with hyaluronic acid or a salt thereof at a concentration which is employed as an additive, the time course of a change in the tear meniscus area value after the sequential ocular instillation of the 3% diquafosol sodium and the 0.002% sodium hyaluronate was evaluated in the same manner as in Pharmacological test 1.
# A 3% diquafosol sodium ophthalmic solution was prepared in the same manner as in the above-mentioned Pharmacological test 1. A 0.002% sodium hyaluronate ophthalmic solution was prepared by diluting “Hyalein® ophthalmic solution 0.3%” manufactured and sold by Santen Pharmaceutical Co., Ltd. with physiological saline.
# With respect to normal male white rabbits (24 eyes of 12 rabbits in total), a photograph of a tear meniscus before the administration of a drug was taken in the same manner as in pharmacological test 1. […]
# (§1) The change in the tear meniscus area before and after the administration of each of the drugs was calculated as a “Δ tear meniscus area value”.
# [2] = system: rat model from which an exorbital lacrimal gland is excised, additionally applied airflow (corneal epithelial disorder); experiment: Pharmacological Test 2: corneal fluorescein staining score in rat dry eye model (exorbital lacrimal gland excised plus airflow); type: in vivo; details: 5 μL into both eyes 6 times per day for 6 weeks; 3% diquafosol sodium, 0.1% sodium hyaluronate; compared with non-administered group; FIG. 2
# Source text: A rat model from which an exorbital lacrimal gland is excised therefrom has been generally used as a model for evaluating therapeutic effects on corneal epithelial disorders induced by dry eye, and has also been used as a model for evaluating therapeutic effects of P2Y2 receptor agonists (Invest. Ophthalmol. Vis. Sci., 42(1), 96-100 (2001)). Using a dry eye model which is additionally applied airflow to the rat model, it was examined whether or not an improvement effect on corneal epithelial disorders could be achieved by the administration of a P2Y2 receptor agonist at a therapeutically effective concentration and hyaluronic acid or a salt thereof at a therapeutically effective concentration in combination. […]
# Six weeks after the initiation of the instillation into eyes, an affected part of the cornea was stained with fluorescein, and the occurrence of the corneal epithelial disorder was determined in accordance with the method by Murakami et al. (Journal of the Eye (Atarashii Ganka), 21(1), 87-90 (2004)). That is, with respect to each of an upper part, an intermediate part and a lower part of the cornea, scores of the degree of staining with fluorescein were determined in accordance with the criteria mentioned below, and the average value of the sum total of the scores was calculated. […]
# [3] = system: normal male white rabbits; experiment: Pharmacological Test 1: change in tear meniscus area after ocular instillation (3% diquafosol sodium, 0.1% sodium hyaluronate); type: in vivo, rabbit; details: 50 μL instilled once, FIG. 1
# Description: The change in the tear fluid volume can be evaluated by measuring the value of a tear meniscus area stained with a fluorescein solution (Exp. Eye. Res., 78(3), 399-407 (2004)). Then, the time course of a change in the tear meniscus area value after the sequential administration of diquafosol sodium, which is a P2Y2 receptor agonist, and sodium hyaluronate to eyes was evaluated in accordance with the method of Murakami et al. (Ophthalmic Res., 34, 371-374 (2002)), using normal male white rabbits. […]
# A 0.1% fluorescein solution (3 μL) was administered onto a tear meniscus of the lower eyelid of each of normal male white rabbits (40 eyes of 20 rabbits in total), and a photograph of the tear meniscus that was stained with fluorescein accumulated in the eyelid was taken. The area of the stained tear meniscus part in the photograph was calculated using image analysis software, and the resultant value was employed as a baseline. […]
# The change in the tear meniscus area before and after the administration of each of the drugs was calculated as “Δ tear meniscus area value”. […]
# [4] = clinical tests; Cornea 23(8), 784-792 (2004); cited from earlier work
# [5] = system: normal male white rabbits; experiment: Pharmacological Test 4: change in tear meniscus area (3% diquafosol sodium, 0.3% sodium hyaluronate); type: in vivo, rabbit; details: after 35 minutes, 50 μL, combination: hyaluronate 5 min after diquafosol
# Description: The time course of a change in tear meniscus area values after the sequential instillation of 3% diquafosol sodium and 0.3% sodium hyaluronate into eyes was evaluated in the same manner as in Pharmacological test 1.
# A 3% diquafosol sodium ophthalmic solution was prepared in the same manner as in the above-mentioned Pharmacological test 1. “Hyalein® ophthalmic solution 0.3%” manufactured and sold by Santen Pharmaceutical Co., Ltd. was used as a 0.3% sodium hyaluronate ophthalmic solution.
# With respect to each of normal male white rabbits (18 eyes of 9 rabbits in total), a photograph of a tear meniscus was taken before the administration of each of the drug in the same manner as in Pharmacological test 1. […]
# as §1
Compound,secretion of tear (rabbits),Δ tear meniscus area value [1],fluorescein staining scores of the cornea [2],Δ tear meniscus area value ([3]; 10 minutes after administration (of the first agent)),Δ tear meniscus area value ([3]; 35 minutes after administration (of the first agent)),keratoconjunctival epithelial disorders [4],secretion of tear [4],Δ tear meniscus area value [5] [mm^2]
"Nc1ncnc2c1ncn2[C@@H]1O[C@H](COP(=O)(O)OP(=O)(O)OP(=O)(O)O)[C@@H](O)[C@H]1O [ATP, Adenosine 5′-triphosphate]",can promote the secretion of tear in rabbits,,,,,,,
"O=c1ccn([C@@H]2O[C@H](COP(=O)(O)OP(=O)(O)OP(=O)(O)OP(=O)(O)OC[C@H]3O[C@@H](n4ccc(=O)[nH]c4=O)C(O)[C@H]3O)[C@H](O)C2O)c(=O)[nH]1 (stereo partly drawn) [Diquafosol, P^1,P^4-bis(5′-uridyl)tetraphosphate]",,1 .127 mm^2,"the tendency of improvement in fluorescein staining scores was observed, the improvement that can be considered as being statistically significant was not observed",increase in the tear meniscus area value was observed,increase in the tear meniscus area value was observed,ameliorated keratoconjunctival epithelial disorders,promoted the secretion of tear,1.434
"O=c1ccn([C@@H]2O[C@H](COP(=O)(O)OP(=O)(O)OP(=O)(O)O)[C@@H](O)[C@H]2O)c(=O)[nH]1 [UTP, Uridine 5′-triphosphate]",can promote the secretion of tear in rabbits,,,,,,,
